Laboratory results reported in patent publication US10934310B2, “Inhibitors of Bruton's tyrosine kinase and method of their use” (JANSSEN PHARMACEUTICA NV, priority 2015, dated 2021).

Molecular target: unphosphorylated-BTK kinase domain (UP-BTK), GST-tagged human BTK (389-659aa) (Homo sapiens (Human), UniProt Q06187)
Assay: BTK Kinase Lanthascreen Binding Assay
Settings: compound, 50 nM Tracer 236, 2 nM anti-GST antibody, 60 minutes; pIC50 = negative log of the IC50 in molar
Description: BTK Kinase Lanthascreen Binding Assay:
A BTK kinase lanthascreen binding assay monitors compound binding to unphosphorylated-BTK kinase domain (UP-BTK), by competing with a fluorescent labeled tracer. […] Data were analyzed using Xlfit™ version 5.3 from ID Business Solutions (Guildford), Microsoft Excel add-in. pIC50 refers to the negative log of the IC50 in molar.

Chain of unphosphorylated-BTK kinase domain (UP-BTK), GST-tagged human BTK (389-659aa) (Q06187 389-659): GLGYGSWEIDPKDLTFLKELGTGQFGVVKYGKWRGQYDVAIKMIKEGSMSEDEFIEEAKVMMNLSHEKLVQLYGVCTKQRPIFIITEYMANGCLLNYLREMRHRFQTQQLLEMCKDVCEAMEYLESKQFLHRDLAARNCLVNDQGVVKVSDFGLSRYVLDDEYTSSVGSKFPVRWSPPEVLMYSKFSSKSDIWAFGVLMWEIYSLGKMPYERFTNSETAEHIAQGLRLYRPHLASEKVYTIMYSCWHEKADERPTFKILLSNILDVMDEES

| Structure (SMILES) | BTK_I_binding pIC50 |
| --- | --- |
| Cc1cc(Oc2ccccc2)ccc1N1C(=O)Nc2c(C(=O)N[C@H]3CC[C@H](O)CC3)sc3nccc1c23 (single isomer, unassigned) [Example 85, N-((1R,4R)-4-Hydroxycyclohexyl)-5-(*S)-(2-methyl-4-phenoxyphenyl)-4-oxo-4,5-dihydro-3H-1-thia-3,5,8-triazaacenaphthylene-2-carboxamide] | 7.67 |
| CCC(=O)N[C@@H]1CC[C@H](NC(=O)c2sc3nccc4c3c2NC(=O)N4c2ccc(Oc3ccccc3)cc2C)C1 (single isomer, unassigned) [Example 87, 5-(*S)-(2-Methyl-4-phenoxyphenyl)-4-oxo-N-((1S,3R)-3-propionamidocyclopentyl)-4,5-dihydro-3H-1-thia-3,5,8-triazaacenaphthylene-2-carboxamide] | 7.87 |
| CCC(=O)N[C@H]1CC[C@@H](NC(=O)c2sc3nccc4c3c2NC(=O)N4c2ccc(Oc3ccccc3)cc2C)CC1 (single isomer, unassigned) [Example 92, 5-(*S)-(2-Methyl-4-phenoxyphenyl)-4-oxo-N-((1S,4S)-4-propionamidocyclohexyl)-4,5-dihydro-3H-1-thia-3,5,8-triazaacenaphthylene-2-carboxamide] | 6.91 |
| CCC(=O)N[C@H]1CC[C@@H](NC(=O)c2sc3nccc4c3c2NC(=O)N4c2ccc(Oc3ccccc3)cc2C)CC1 (single isomer, unassigned) [Example 93, 5-(*R)-(2-Methyl-4-phenoxyphenyl)-4-oxo-N-((1S,4S)-4-propionamidocyclohexyl)-4,5-dihydro-3H-1-thia-3,5,8-triazaacenaphthylene-2-carboxamide] | 6.99 |
| CC(=O)N[C@H]1CC[C@@H](NC(=O)c2sc3nccc4c3c2NC(=O)N4c2ccc(Oc3ccccc3)cc2C)CC1 (single isomer, unassigned) [Example 94, N-((1S,4S)-4-Acetamidocyclohexyl)-5-(*S)-(2-methyl-4-phenoxyphenyl)-4-oxo-4,5-dihydro-3H-1-thia-3,5,8-triazaacenaphthylene-2-carboxamide] | 7.59 |
| CC(=O)N[C@H]1CC[C@@H](NC(=O)c2sc3nccc4c3c2NC(=O)N4c2ccc(Oc3ccccc3)cc2C)CC1 (single isomer, unassigned) [Example 95, N-((1S,4S)-4-Acetamidocyclohexyl)-5-(*R)-(2-methyl-4-phenoxyphenyl)-4-oxo-4,5-dihydro-3H-1-thia-3,5,8-triazaacenaphthylene-2-carboxamide] | 6.14 |
| C=CC(=O)N[C@@H]1CC[C@H](NC(=O)c2sc3nccc4c3c2NC(=O)N4c2ccc(Oc3ccccc3)cc2C)C1 (single isomer, unassigned) [Example 101, N-((1S,3R)-3-Acrylamidocyclopentyl)-5-(*S)-(2-methyl-4-phenoxyphenyl)-4-oxo-4,5-dihydro-3H-1-thia-3,5,8-triazaacenaphthylene-2-carboxamide] | 7.95 |
| Cc1cc(Oc2ccccc2)ccc1N1C(=O)Nc2c(C(=O)N[C@H]3CC[C@@H](NC(=O)CN(C)C)C3)sc3nccc1c23 (single isomer, unassigned) [Example 102, N-((1S,3R)-3-(2-(dimethylamino)acetamido)cyclopentyl)-5-(*S)-(2-methyl-4-phenoxyphenyl)-4-oxo-4,5-dihydro-3H-1-thia-3,5,8-triazaacenaphthylene-2-carboxamide] | 7.50 |
| CNCC(=O)N[C@@H]1CC[C@H](NC(=O)c2sc3nccc4c3c2NC(=O)N4c2ccc(Oc3ccccc3)cc2C)C1 (single isomer, unassigned) [Example 103, 5-(*S)-(2-Methyl-4-phenoxyphenyl)-N-((1S,3R)-3-(2-(methylamino)acetamido)cyclopentyl)-4-oxo-4,5-dihydro-3H-1-thia-3,5,8-triazaacenaphthylene-2-carboxamide] | 7.40 |
| C=CC(=O)N[C@@H]1CCC[C@H]1NC(=O)c1sc2nccc3c2c1NC(=O)N3c1ccc(Oc2ccccc2)cc1C (single isomer, unassigned) [Example 105, N-((1R,2R)-2-Acrylamidocyclopentyl)-5-(*S)-(2-methyl-4-phenoxyphenyl)-4-oxo-4,5-dihydro-3H-1-thia-3,5,8-triazaacenaphthylene-2-carboxamide] | 8.11 |
| C=CC(=O)N[C@H]1CCC[C@H]1NC(=O)c1sc2nccc3c2c1NC(=O)N3c1ccc(Oc2ccccc2)cc1C (single isomer, unassigned) [Example 107, N-((1R,2S)-2-Acrylamidocyclopentyl)-5-(*S)-(2-methyl-4-phenoxyphenyl)-4-oxo-4,5-dihydro-3H-1-thia-3,5,8-triazaacenaphthylene-2-carboxamide] | 8.25 |
| C=CC(=O)N[C@H]1CCCC[C@H]1NC(=O)c1sc2nccc3c2c1NC(=O)N3c1ccc(Oc2ccccc2)cc1C (single isomer, unassigned) [Example 108, N-((1R,2S)-2-Acrylamidocyclohexyl)-5-(*S)-(2-methyl-4-phenoxyphenyl)-4-oxo-4,5-dihydro-3H-1-thia-3,5,8-triazaacenaphthylene-2-carboxamide] | 7.56 |
| Cc1cc(Oc2ccccc2)ccc1N1C(=O)Nc2c(C(=O)N[C@@H]3CCC[C@H]3NC(=O)CN(C)C)sc3nccc1c23 (single isomer, unassigned) [Example 111, N-((1R,2R)-2-(2-(Dimethylamino)acetamido)cyclopentyl)-5-(*S)-(2-methyl-4-phenoxyphenyl)-4-oxo-4,5-dihydro-3H-1-thia-3,5,8-triazaacenaphthylene-2-carboxamide] | 7.68 |
| CNCC(=O)N[C@@H]1CCC[C@H]1NC(=O)c1sc2nccc3c2c1NC(=O)N3c1ccc(Oc2ccccc2)cc1C (single isomer, unassigned) [Example 112, 5-(*S)-(2-Methyl-4-phenoxyphenyl)-N-((1R,2R)-2-(2-(methylamino)acetamido)cyclopentyl)-4-oxo-4,5-dihydro-3H-1-thia-3,5,8-triazaacenaphthylene-2-carboxamide] | 8.04 |
| Cc1cc(Oc2ccccc2)ccc1N1C(=O)Nc2c(C(=O)N[C@@H]3CCC[C@H]3NC(=O)CN)sc3nccc1c23 (single isomer, unassigned) [Example 113, N-((1R,2R)-2-(2-Aminoacetamido)cyclopentyl)-5-(*S)-(2-methyl-4-phenoxyphenyl)-4-oxo-4,5-dihydro-3H-1-thia-3,5,8-triazaacenaphthylene-2-carboxamide] | 7.88 |
| C=CC(=O)N[C@@H]1CCC[C@@H]1NC(=O)c1sc2nccc3c2c1NC(=O)N3c1ccc(Oc2ccccc2)cc1C (single isomer, unassigned) [Example 114, N-((1S,2R)-2-Acrylamidocyclopentyl)-5-(*S)-(2-methyl-4-phenoxyphenyl)-4-oxo-4,5-dihydro-3H-1-thia-3,5,8-triazaacenaphthylene-2-carboxamide] | 6.81 |
| Cc1cc(Oc2ccccc2)ccc1N1C(=O)Nc2c(C(=O)N[C@@H]3CCC[C@@H]3N)sc3nccc1c23 (single isomer, unassigned) [Example 115, N-((1R,2S)-2-Aminocyclopentyl)-5-(*S)-(2-methyl-4-phenoxyphenyl)-4-oxo-4,5-dihydro-3H-1-thia-3,5,8-triazaacenaphthylene-2-carboxamide] | 7.57 |
